The text below walks through data of patent publication US6342509B1, “Piperidine quaternary salts- CCR- 3 receptor antagonists” (Syntex (U.S.A.) LLC, priority 1998, dated 2002).

pIC50: −log10 of the molar value.

One series deals with T1, CCR-3 receptor (Homo sapiens, UniProt P51677).
T1 construct: host or cells: L1.2 (murine pre-B lymphoma line) CCR-3 transfectant cells
T1 sequence (P51677 1-355): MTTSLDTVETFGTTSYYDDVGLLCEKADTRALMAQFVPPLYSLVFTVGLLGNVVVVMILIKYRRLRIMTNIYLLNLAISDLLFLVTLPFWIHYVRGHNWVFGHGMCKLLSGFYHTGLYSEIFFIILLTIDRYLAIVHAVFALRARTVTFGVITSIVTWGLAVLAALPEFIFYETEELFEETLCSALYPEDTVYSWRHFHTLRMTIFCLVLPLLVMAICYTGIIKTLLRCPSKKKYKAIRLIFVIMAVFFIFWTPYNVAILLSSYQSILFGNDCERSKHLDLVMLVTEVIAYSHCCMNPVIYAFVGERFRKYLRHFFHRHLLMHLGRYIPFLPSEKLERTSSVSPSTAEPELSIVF
Description: CCR-3 Receptor Binding Assay in vitro (inhibition of 125I eotaxin binding to CCR-3 L1.2 transfectant cells). To be noted: CCR-3 L1.2 transfected cells, 1 h at room temperature, read-out: IC50 (concentration of test compound required to reduce 125I-eotaxin binding to the CCR-3 L1.2 transfected cells by 50%). On the procedure:
The CCR-3 antagonistic activity of the compounds of the invention was determined by their ability to inhibit the binding of ^125I eotaxin to CCR-3 L1.2 transfectant cells obtained from leukoSite (Cambridge, Mass.).
The assay was performed in Costar 96-well polypropylene round bottom plates. Test compounds were dissolved in DMSO and then diluted with binding buffer (50 mM HEPES, 1 mM CaCl2, 5 mM MgCl2, 0.5% bovine serum albumin, 0.02% sodium azide, pH 7.24) such that the final DMSO concentration was 2%. 25 μl of the test solution or only buffer with DMSO (control samples) was added to each well, followed by the addition of 25 μl of ^125I-eotaxin ([…]) (NEX314, New England Nuclear, Boston, Mass.) and […] of the CCR-3 L1.2 transfected cells in 25 μl binding buffer. The final reaction volume was 75 μl.
After incubating the reaction mixture for 1 h at room temperature, the reaction was terminated by filtering the reaction mixture through polyethylenimine treated Packard Unifilter GF/C filter plate (Packard, Chicago, Ill.). The filters were washed four times with ice cold wash buffer containing 10 mm HEPES and 0.5M sodium chloride (pH 7.2) and dried at 65° C. for approximately 10 min. 25 μl/well of Microscint-20™ scintillation fluid (Packard) was added and the radioactivity retained on the filters was determined by using the Packard TopCount™.
The IC50 value (concentration of test compound required to reduce ^125I-eotaxin binding to the CCR-3 L 1.2 transfected cells by 50%) for representative compounds of the invention was: […]

What is called melting point is the temperature, or range, at which the solid turns liquid.

Compound `COc1cc(NC(=O)NC(C[N+]2(C)CCC(Cc3ccc(Cl)c(Cl)c3)CC2)C(C)C)cc(OC)c1OC.[Cl-]` (centres unmarked) yielded a melting point of 123.7 to 138 °C. On to `CC[N+]1(C[C@H](NC(=O)Nc2cc(OC)c(OC)c(OC)c2)C(C)C)CCC(Cc2ccc(Cl)c(Cl)c2)CC1` (some centres unmarked) [Cpd 1, 4-(3,4-Dichlorobenzyl)-1-ethyl-1-{3-methyl-2-[3-(3,4,5-trimethoxyphenyl)-ureido]butyl]piperidinium iodide], for which, on CCR-3 receptor, the pIC50 was 6.68. On the same count and under the same terms, to `CCc1ccccc1NC(=O)N[C@@H](C[N+]1(CC)CCC(Cc2ccc(Cl)c(Cl)c2)CC1)C(C)(C)C` (some centres unmarked) [Cpd 12] belongs 6.70; to `COc1cc(NC(=O)NC(C[N+]2(C)CCC(Cc3ccc(Cl)c(Cl)c3)CC2)C(C)C)cc(OC)c1OC` (centres unmarked) [Cpd 14, 4-(3,4-dichlorobenzyl)-1-methyl-1-{3-methyl-2-[3-(3,4,5-trimethoxyphenyl)ureido]butyl}piperidinium iodide], 5.63. In the case of `COc1cc(NC(=O)NCC[N+]2(C)CCC(Cc3ccc(Cl)c(Cl)c3)CC2)cc(OC)c1OC.[I-]` (centres unmarked) [Cpd 19, 4-(3,4-dichlorobenzyl)-1-methyl-1-{2-[(3,4,5-trimethoxyphenyl)ureido]ethyl}piperidinium iodide], the melting point was in the range of 102 to 108 °C.
